Test [1] addresses T1, 5-LO (Homo sapiens, UniProt P09917).
T1 construct: heparinised human blood, prior to challenge with the calcium ionophore A23187; endogenous in cells; host or cells: heparinised human whole blood (blood cells, A23187-challenged)
T1 sequence (P09917 1-674): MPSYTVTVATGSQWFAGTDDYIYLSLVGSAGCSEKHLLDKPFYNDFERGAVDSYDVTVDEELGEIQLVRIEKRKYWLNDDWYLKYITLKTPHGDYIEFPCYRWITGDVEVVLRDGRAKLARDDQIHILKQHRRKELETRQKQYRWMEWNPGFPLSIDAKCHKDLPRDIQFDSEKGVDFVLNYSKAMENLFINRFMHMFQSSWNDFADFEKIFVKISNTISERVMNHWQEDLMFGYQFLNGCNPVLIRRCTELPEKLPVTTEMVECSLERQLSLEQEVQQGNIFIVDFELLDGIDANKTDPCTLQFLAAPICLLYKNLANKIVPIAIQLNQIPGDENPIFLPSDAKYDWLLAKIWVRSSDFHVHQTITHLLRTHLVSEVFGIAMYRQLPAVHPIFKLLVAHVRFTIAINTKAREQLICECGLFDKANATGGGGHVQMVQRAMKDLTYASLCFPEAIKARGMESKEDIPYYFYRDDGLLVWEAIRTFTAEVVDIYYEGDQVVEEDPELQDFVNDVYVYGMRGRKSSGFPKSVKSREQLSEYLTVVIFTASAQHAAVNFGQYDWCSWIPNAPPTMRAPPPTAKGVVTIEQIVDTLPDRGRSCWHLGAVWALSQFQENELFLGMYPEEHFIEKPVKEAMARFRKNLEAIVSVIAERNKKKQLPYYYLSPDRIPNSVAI
Put plainly: Test (b): heparinised human blood challenged with A23187, LTB4 radioimmunoassay. Format: cell-based. How it is done: (§1) (b) An in vitro assay system involving incubating a test compound with heparinised human blood, prior to challenge with the calcium ionophore A23187 and then indirectly measuring the inhibitory effects on 5-LO by assaying the amount of LTB4 using the specific radioimmunoassay described by Carey and Forder (F. Carey and R. A. Forder, Brit. J. Pharmacol. 1985, 84, 34P) which involves the use of a protein-LTB4 conjugate produced using the procedure of Young et alia (Prostaglandins, 1983, 26(4), 605-613). The effects of a test compound on the enzyme cyclooxygenase (which is involved in the alternative metabolic pathway for arachidonic acid and gives rise to prostaglandins, thromboxanes and related metabolites) may be measured at the same time using the specific radioimmunoassay for thromboxane B2 (TxB2) described by Carey and Forder (see above). This test provides an indication of the effects of a test compound against 5-LO and also cyclooxygenase in the presence of blood cells and proteins. It permits the selectivity of the inhibitory effect on 5-LO or cyclooxygenase to be assessed.

The next test deals with T2, cyclooxygenase (Homo sapiens, UniProt P23219).
T2 construct: heparinised human blood, prior to challenge with the calcium ionophore A23187; endogenous in cells; host or cells: heparinised human whole blood (platelets and other blood cells, A23187-challenged)
In words: Test (b): heparinised human blood challenged with A23187, TxB2 radioimmunoassay. The class given is cell-based. How it is done: as §1

Test [2] concerns the target T3, 5-LO (Rattus norvegicus, UniProt P12527).
T3 construct: blood collection, heparinisation, challenge with A23187 and radioimmunoassay of LTB4 and TxB2; endogenous in cells
T3 sequence (P12527 1-673): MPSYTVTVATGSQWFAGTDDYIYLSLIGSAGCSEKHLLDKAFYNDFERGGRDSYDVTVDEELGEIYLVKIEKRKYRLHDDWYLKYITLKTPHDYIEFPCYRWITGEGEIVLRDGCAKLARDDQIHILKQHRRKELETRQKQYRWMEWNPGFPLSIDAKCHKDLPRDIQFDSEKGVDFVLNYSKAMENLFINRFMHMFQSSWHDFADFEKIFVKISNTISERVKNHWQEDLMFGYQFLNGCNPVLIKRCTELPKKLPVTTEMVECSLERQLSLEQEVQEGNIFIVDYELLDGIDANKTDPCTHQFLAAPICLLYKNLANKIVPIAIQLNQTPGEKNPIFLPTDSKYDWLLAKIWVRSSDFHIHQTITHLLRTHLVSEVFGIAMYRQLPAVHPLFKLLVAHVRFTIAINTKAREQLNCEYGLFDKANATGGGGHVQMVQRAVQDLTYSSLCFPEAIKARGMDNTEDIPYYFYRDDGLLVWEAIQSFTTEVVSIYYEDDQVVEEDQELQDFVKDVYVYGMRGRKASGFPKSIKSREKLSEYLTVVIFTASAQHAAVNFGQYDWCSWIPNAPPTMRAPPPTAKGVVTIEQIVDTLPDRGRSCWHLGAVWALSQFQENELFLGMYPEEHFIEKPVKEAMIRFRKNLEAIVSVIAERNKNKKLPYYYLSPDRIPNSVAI
Put plainly: Test (c): ex vivo assay after (usually oral) administration, blood challenged with A23187, LTB4 radioimmunoassay. The class given is in vivo. As for the experimental part: (c) An ex vivo assay system, which is a variation of test b) above, involving administration of a test compound (usually orally as the suspension produced when a solution of the test compound in dimethylsulphoxide is added to carboxymethylcellulose), blood collection, heparinisation, challenge with A23187 and radioimmunoassay of LTB4 and TxB2. This test provides an indication of the bioavailability of a test compound as an inhibitor of 5-LO or cyclooxygenase.

Experimental findings from patent publication US5132328A, “Alcohol and ether derivatives” (Imperial Chemical Industries PLC, priority 1988, dated 1992) are described below.

The structures appear in SMILES notation. Where only a bound is given, the exact number is not on record here.

A word on the IC50: it is the concentration at which inhibition is half-maximal. Read a high IC50 as weaker potency in that assay. For orientation: ED50 means the dose that gives a 50% effect, or the effect in half of the subjects. The low end stands for an effect at a small dose, the high end for a need for a large dose.

T2 sequence (P23219 24-599): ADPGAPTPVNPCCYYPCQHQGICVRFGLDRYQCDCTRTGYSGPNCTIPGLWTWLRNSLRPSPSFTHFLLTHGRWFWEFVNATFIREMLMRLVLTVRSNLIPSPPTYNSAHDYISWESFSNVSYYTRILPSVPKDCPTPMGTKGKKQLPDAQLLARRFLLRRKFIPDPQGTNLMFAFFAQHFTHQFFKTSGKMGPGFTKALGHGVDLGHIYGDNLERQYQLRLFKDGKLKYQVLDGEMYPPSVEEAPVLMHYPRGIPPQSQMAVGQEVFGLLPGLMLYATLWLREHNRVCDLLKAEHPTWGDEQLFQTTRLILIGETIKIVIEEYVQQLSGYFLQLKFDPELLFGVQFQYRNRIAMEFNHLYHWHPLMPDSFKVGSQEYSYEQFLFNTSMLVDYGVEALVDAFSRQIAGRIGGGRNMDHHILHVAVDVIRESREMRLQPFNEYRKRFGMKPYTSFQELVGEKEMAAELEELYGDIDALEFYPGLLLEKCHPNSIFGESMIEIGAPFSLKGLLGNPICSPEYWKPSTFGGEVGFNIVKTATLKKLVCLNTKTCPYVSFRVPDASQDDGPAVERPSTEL

As for `CCC(COC)(OC)c1cccc(OCc2ccc3ccccc3c2)c1` (stereo not drawn) [2-methoxy-2-[3-(naphth-2-ylmethoxy)phenyl]but-1-yl methyl ether], the IC50 was 500 nM against 5-LO [1] and greater than 40 µM against cyclooxygenase. At 5-LO [2], the ED50 came out at 30 mg/kg.
